Data on five compounds can be found in patent publication USRE32311E.

In brackets after ≈: the same amount, converted by molar mass. Some results are limits rather than exact numbers.

The subject of data set [1] is Staphylococcus epidermidis EP11. The data set is described as follows: agar-dilution MIC. The class given is cell-based.
Description: (§1) In Table VII activity is measured by the minimal inhibitory concentration (MIC), i.e. the lowest concentration of compound at which growth of the microorganism is inhibited by the test compound.
The subject of data set [2] is Streptococcus pyogenes C203. The data set is described as follows: agar-dilution MIC. Format: cell-based.
Description: as §1
The next data set deals with Staphylococcus aureus. The experiment in a line: experimental bacterial infection in mice, ED50. Format: in vivo. To be noted: two doses.
In data set [3] the test system is Staphylococcus aureus X400. The data set is described as follows: agar-dilution MIC. Format: cell-based. To be noted: Staphylococcus aureus X400, methicillin-resistant strain.
Description: as §1
The subject of data set [4] is Staphylococcus aureus V41. The experiment in a line: agar-dilution MIC. Format: cell-based. To be noted: Staphylococcus aureus V41, penicillin-resistant strain.
Description: as §1
In data set [5] the test system is Streptococcus Group D 9960. The experiment in a line: agar-dilution MIC. Format: cell-based.
A short description of a further data set: toxicity, LD50 in mice. The class given is in vivo. To be noted: administered intravenously.
The next data set relates to Streptococcus pyogenes. The experiment in a line: experimental bacterial infection in mice, ED50. The class given is in vivo. The note with it: two doses.
Data set [6] relates to Staphylococcus aureus X1.1. The data set is described as follows: agar-dilution MIC. Format: cell-based.
For data set [7], the system named is Streptococcus Group D X66. The experiment in a line: agar-dilution MIC. The class given is cell-based.
Description: as §1
Data set [8] deals with Staphylococcus epidermidis EP12. The experiment in a line: agar-dilution MIC. The class given is cell-based.
Description: as §1
The test system of data set [9] is Streptococcus pneumoniae Park I. Format: cell-based. To be noted: agar dilution.
Description: as §1

With `CCCCCCCCCCCC(=O)NCCCCCCCCCCC(=O)N[C@@H](Cc1c[nH]c2ccccc12)C(=O)N[C@H](CC(N)=O)C(=O)N[C@@H](CC(=O)O)C(=O)N[C@@H]1C(=O)NCC(=O)N[C@@H](CCCN)C(=O)N[C@@H](CC(=O)O)C(=O)N[C@H](C)C(=O)N[C@@H](CC(=O)O)C(=O)NCC(=O)N[C@H](CO)C(=O)N[C@@H]([C@H](C)CC(=O)O)C(=O)N[C@@H](CC(=O)c2ccccc2N)C(=O)O[C@@H]1C` [Compound 3], the minimal inhibitory concentration (MIC) in [1] amounted to 8 µg/mL (≈ 4.37 µM); in data set [2], 2 µg/mL (≈ 1.09 µM); in data set [3], 8 µg/mL (≈ 4.37 µM); in data set [4] it was 2 µg/mL (≈ 1.09 µM); in data set [5] it was 8 µg/mL (≈ 4.37 µM); in data set [6], 2 µg/mL (≈ 1.09 µM). Besides, the values for the MIC in data set [7], in data set [8] and in data set [9] were 8 µg/mL (≈ 4.37 µM), 8 µg/mL (≈ 4.37 µM) and 0.5 µg/mL (≈ 0.273 µM), respectively. Further, the “ED50 Staphylococcus aureus Subcutaneous” value with Staphylococcus aureus is more than 18 mg/kg × 2. In “toxicity, LD50 in mice”, the “LD50 in Mice” value was 600 mg/kg. Also, the “ED50 Streptococcus pyogenes Oral” value in the data set with Streptococcus pyogenes is more than 200 mg/kg × 2. Besides, the “ED50 Streptococcus pyogenes Subcutaneous” value in the data set with Streptococcus pyogenes was 6.2 mg/kg × 2.
As to `CCCCCCCCCCCC(=O)Nc1cccc(C(=O)N[C@@H](Cc2c[nH]c3ccccc23)C(=O)N[C@H](CC(N)=O)C(=O)N[C@@H](CC(=O)O)C(=O)N[C@@H]2C(=O)NCC(=O)N[C@@H](CCCN)C(=O)N[C@@H](CC(=O)O)C(=O)N[C@H](C)C(=O)N[C@@H](CC(=O)O)C(=O)NCC(=O)N[C@H](CO)C(=O)N[C@@H]([C@H](C)CC(=O)O)C(=O)N[C@@H](CC(=O)c3ccccc3N)C(=O)O[C@@H]2C)c1` [Compound 5], the MIC in data set [1] was determined as 2 µg/mL (≈ 1.13 µM); in [2], 0.25 µg/mL (≈ 0.141 µM); in [3], 1 µg/mL (≈ 0.566 µM); in data set [4], 0.5 µg/mL (≈ 0.283 µM); in data set [5] it was 1 µg/mL (≈ 0.566 µM); in [6], 0.5 µg/mL (≈ 0.283 µM). Further, the figures for the MIC in data set [7], in data set [8] and in data set [9] were 4 µg/mL (≈ 2.26 µM), 1 µg/mL (≈ 0.566 µM) and 0.25 µg/mL (≈ 0.141 µM), respectively. Besides, in the data set on Staphylococcus aureus, the “ED50 Staphylococcus aureus Subcutaneous” value stood at 1.67 mg/kg × 2. For the same compound, in “toxicity, LD50 in mice”, the “LD50 in Mice” value came to 277 mg/kg. Moreover, in the data set with Streptococcus pyogenes, the “ED50 Streptococcus pyogenes Oral” value is more than 200 mg/kg × 2.
Consider `CCC(C)CCCCCCC(=O)N[C@@H](Cc1c[nH]c2ccccc12)C(=O)N[C@@H](CC(N)=O)C(=O)N[C@@H](CC(=O)O)C(=O)N[C@@H]1C(=O)NCC(=O)N[C@@H](CCCNC(=O)CCC(=O)O)C(=O)N[C@@H](CC(=O)O)C(=O)N[C@H](C)C(=O)N[C@@H](CC(=O)O)C(=O)NCC(=O)N[C@H](CO)C(=O)N[C@@H]([C@H](C)CC(=O)O)C(=O)N[C@@H](CC(=O)c2ccccc2N)C(=O)O[C@@H]1C` (stereo partly shown) [Compound 15], for which the MIC in data set [1] was determined as 4 µg/mL (≈ 2.31 µM); in data set [2], 1 µg/mL (≈ 0.576 µM); in data set [3], 8 µg/mL (≈ 4.61 µM); in [4], 2 µg/mL (≈ 1.15 µM); in [5] it was 4 µg/mL (≈ 2.31 µM); in data set [6] it was 1 µg/mL (≈ 0.576 µM). Moreover, the MIC in data set [7] is 4 µg/mL (≈ 2.31 µM); in [8], 4 µg/mL (≈ 2.31 µM); in data set [9], 0.25 µg/mL (≈ 0.144 µM). In the data set with Staphylococcus aureus, the “ED50 Staphylococcus aureus Subcutaneous” value is more than 18 mg/kg × 2. Moreover, in “toxicity, LD50 in mice”, the “LD50 in Mice” value turned out to be 250 mg/kg. For the same compound, the “ED50 Streptococcus pyogenes Subcutaneous” value in the data set with Streptococcus pyogenes is listed as 1.02 mg/kg × 2.
On to `CCCCCCCCCC(=O)N[C@@H](Cc1ccccc1)C(=O)N[C@@H](Cc1c[nH]c2ccccc12)C(=O)N[C@H](CC(N)=O)C(=O)N[C@@H](CC(=O)O)C(=O)N[C@@H]1C(=O)NCC(=O)N[C@@H](CCCN)C(=O)N[C@@H](CC(=O)O)C(=O)N[C@H](C)C(=O)N[C@@H](CC(=O)O)C(=O)NCC(=O)N[C@H](CO)C(=O)N[C@@H]([C@H](C)CC(=O)O)C(=O)N[C@@H](CC(=O)c2ccccc2N)C(=O)O[C@@H]1C` [Compound 19, NTrp-[N-(n-Decanoyl)-L-phenylalanyl]-A-21978C Nucleus], for which the MIC worked out at 1 µg/mL (≈ 0.566 µM) in data set [1]; 0.25 µg/mL (≈ 0.141 µM) in data set [2]; 1 µg/mL (≈ 0.566 µM) in data set [3]; 0.5 µg/mL (≈ 0.283 µM) in data set [4]; 2 µg/mL (≈ 1.13 µM) in data set [5]; 0.5 µg/mL (≈ 0.283 µM) in data set [6]. Besides, the figures for the MIC in data set [7], in data set [8] and in [9] were 8 µg/mL (≈ 4.53 µM), 0.5 µg/mL (≈ 0.283 µM) and 0.75 µg/mL (≈ 0.424 µM), respectively. Further, the “LD50 in Mice” value in the data set “toxicity, LD50 in mice” came to 600 mg/kg. Besides, the “ED50 Streptococcus pyogenes Oral” value in the data set with Streptococcus pyogenes was more than 200 mg/kg × 2. Further, the “ED50 Streptococcus pyogenes Subcutaneous” value in the data set on Streptococcus pyogenes is 0.39 mg/kg × 2.
On to `CCCCCCCCCCCC(=O)N[C@@H](Cc1c[nH]c2ccccc12)C(=O)N[C@@H](Cc1c[nH]c2ccccc12)C(=O)N[C@H](CC(N)=O)C(=O)N[C@@H](CC(=O)O)C(=O)N[C@@H]1C(=O)NCC(=O)N[C@@H](CCCN)C(=O)N[C@@H](CC(=O)O)C(=O)N[C@H](C)C(=O)N[C@@H](CC(=O)O)C(=O)NCC(=O)N[C@H](CO)C(=O)N[C@@H]([C@H](C)CC(=O)O)C(=O)N[C@@H](CC(=O)c2ccccc2N)C(=O)O[C@@H]1C` [Compound 24], for which the MIC in [1] worked out at 4 µg/mL (≈ 2.18 µM); in [2], 2 µg/mL (≈ 1.09 µM); in [3] it was 4 µg/mL (≈ 2.18 µM); in data set [4] it was 2 µg/mL (≈ 1.09 µM); in [5] it was 4 µg/mL (≈ 2.18 µM); in [6] it was 1 µg/mL (≈ 0.545 µM). The minimal inhibitory concentration (MIC) came out at 16 µg/mL (≈ 8.72 µM) in [7], 4 µg/mL (≈ 2.18 µM) in data set [8] and 1 µg/mL (≈ 0.545 µM) in data set [9]. For the same compound, the “ED50 Staphylococcus aureus Subcutaneous” value with Staphylococcus aureus is on record as 2.3 mg/kg × 2. In the data set “toxicity, LD50 in mice”, the “LD50 in Mice” value was 450 mg/kg. For the same compound, in the data set on Streptococcus pyogenes, the “ED50 Streptococcus pyogenes Oral” value is given as more than 200 mg/kg × 2.
